Experimental findings from article PMC10443802, “Targeting a xenobiotic transporter to ameliorate vincristine-induced sensory neuropathy” (JCI Insight, 2023) are described below.

One series addresses hOATP1C1 (Homo sapiens, UniProt Q9NYB5). The series can be described thus: Substrate uptake in HEK293 cells overexpressing hOATP1C1. The following applies: HEK293 OATP1C1. An excerpt: (§1) transfected with transporters of interest, including hOAT1, hOAT3, hOAT4, hOATP1A2, hOATP3A1, hOATP4A1, hOATP5A1, hOATP1C1, hOATP1B1, hOATP1B3, hOATP2B1, hOCT1, hOCT2, hOCTN1, hOCTN2, hASBT, hNTCP, hNPT1, hMATE1, hOSTα/β, hPEPT1, hPEPT2, rOatp1a1, rOatp1a4, rOatp1a5, rOatp1b2, rNtcp, rAsbt, rOat1, and rOct1. Cells were transfected with expression plasmid or vector control lacking any insert using Lipofectin reagent (Invitrogen). Sixteen hours thereafter, cells were washed with transport media (OPTIMEM, Invitrogen) and treated with radiolabeled drug. At various time intervals, cells were washed three times with ice-cold PBS and then lysed with 1% sodium dodecyl sulfate. The cellular radioactivity was quantified by liquid scintillation counting as described above. Similar analyses were performed in HEK293 cells transfected with hOATP1A2, hOATP1C1, mMATE1, and hMATE1, with cells seeded in poly lysine pre-coated 12-well plates. For hOATP1A2 and hOATP1C1, transient transfections were performed with either an empty vector, OATP1A2, or OATP1C1 using Lipofectamine 2000 according to the manufacturers protocol (Invitrogen). At 48 h post transfection, […]
(§2) Samples were analyzed using real-time quantitative PCR and Taqman Probes (Applied Biosystems). The relative gene expression was determined using the ΔΔCt method, and normalized to the mouse or human housekeeping gene, GAPDH. […]

The subject of the next series is mice. Put plainly: Open field locomotion, Basso Mouse Scale (BMS). It counts as in vivo. Set-up: key: BMS score: higher = better hindlimb locomotion; normal = 9. How it is done:
where the distance between two adjacent rungs is changeable (1-5 cm). The elevated ladder tests were initiated after mice had been acclimated to their surrounding for at least 4 h. The mice were placed at one end of the ladder and encouraged to move forward by a food reward at the other end of the ladder. If a […]
counted by an electrical counter. Experiments were repeated 3 times for each mouse, and an average of the three trials was used for analysis. Open-field locomotion was assessed with the Basso Mouse Scale (BMS) rating system (7). The open field was a round table that was 20.32 cm high and 1.524 m in diameter situated in a quiet testing room with normal lighting. The mice were acclimated to the testing table for 20 min daily for a week before drug administration. Two analysts blinded to the composition of the treatment groups simultaneously scored hindlimb locomotion for 4 min per mouse using a score sheet described previously (7). Parameters of interest included paw position (rotated in, rotated out, parallel placement), trunk stability, tail position, coordination, and plantar and dorsal support. Quantification was based on a scoring system where conditional variables are given a numerical representation in each category. A higher number correlates to better hindlimb locomotor function and ‘normal’ behavior scores a 9; conversely, a lower number represents abnormal locomotion. […]
by an automated ladder test. […]
using the mean Basso Mouse Scale for Locomotion (BMS) score. There were no pronounced differences […]
statistically significant.
(also on this page, place not known: Baseline Day 1 Day 2 Day 3 0 5 10 15 20 25 Number missed steps Wild-type Baseline Day 1 Day 2 Day 3 0 5 10 BMS Wild-type ns A B OATP1B2(-/-) OATP1B2(-/-) score of behavior. ns)

A further series addresses hOATP5A1 (Homo sapiens, UniProt Q9H2Y9). The series can be described thus: Vincristine uptake screen, HeLa cells overexpressing hOATP5A1. It counts as in vitro ADME. The procedure: Relative uptake is expressed as percentage change compared with empty vector controls (n = 4–14 per group). […] Human OATP1B1 and OATP1B3 transporter–overexpressed cells were used as positive controls; empty vector controls were used as the negative control. […] Mechanical allodynia (C), thermal hyperalgesia (D), and sciatic nerve maximal action potential amplitudes (E) are expressed as percentage change relative to baseline values (n = 6–8 per group). Statistical analysis was performed using a 2-way ANOVA with Bonferroni’s post hoc test. **P < 0.01, ***P < 0.001, ****P < 0.0001, compared with baseline values. […] Data are shown as mean ± SEM. […]
transfected with transporters of interest, including hOAT1, hOAT3, hOAT4, hOATP1A2, hOATP3A1, hOATP4A1, hOATP5A1, hOATP1C1, hOATP1B1, hOATP1B3, hOATP2B1, hOCT1, hOCT2, hOCTN1, hOCTN2, hASBT, hNTCP, hNPT1, hMATE1, hOSTα/β, hPEPT1, hPEPT2, rOatp1a1, rOatp1a4, rOatp1a5, rOatp1b2, rNtcp, rAsbt, rOat1, and rOct1. Cells were transfected with expression plasmid or vector control lacking any insert using Lipofectin reagent (Invitrogen). Sixteen hours thereafter, cells were washed with transport media (OPTIMEM, Invitrogen) and treated with radiolabeled drug. […] The cellular radioactivity was quantified by liquid scintillation counting as described above. […]

The target in another series is hOATP1A2 (Homo sapiens, UniProt P46721). The series can be described thus: Substrate uptake in HEK293 cells overexpressing hOATP1A2. The following applies: HEK293 OATP1A2.
hOATP1A2, sequence (P46721 whole entry): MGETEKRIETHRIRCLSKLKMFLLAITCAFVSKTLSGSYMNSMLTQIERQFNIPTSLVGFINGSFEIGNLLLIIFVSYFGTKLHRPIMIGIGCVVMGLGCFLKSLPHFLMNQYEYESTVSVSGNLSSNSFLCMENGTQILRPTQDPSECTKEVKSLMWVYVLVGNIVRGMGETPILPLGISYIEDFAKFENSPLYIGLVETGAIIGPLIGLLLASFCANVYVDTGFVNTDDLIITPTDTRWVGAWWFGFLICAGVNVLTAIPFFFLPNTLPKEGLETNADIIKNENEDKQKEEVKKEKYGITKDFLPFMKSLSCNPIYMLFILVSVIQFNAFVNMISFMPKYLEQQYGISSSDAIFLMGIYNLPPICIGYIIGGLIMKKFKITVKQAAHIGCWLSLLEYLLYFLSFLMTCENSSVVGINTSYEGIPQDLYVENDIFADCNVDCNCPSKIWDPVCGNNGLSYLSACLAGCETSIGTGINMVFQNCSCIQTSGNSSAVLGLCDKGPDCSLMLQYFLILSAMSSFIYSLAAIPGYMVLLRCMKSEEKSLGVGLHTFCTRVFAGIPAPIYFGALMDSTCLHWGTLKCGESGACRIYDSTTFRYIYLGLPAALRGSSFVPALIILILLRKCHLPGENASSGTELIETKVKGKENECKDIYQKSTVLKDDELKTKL
Source text: as §1, §2

Where “and” joins values, the source holds several entries; their conditions need not be identical. Equal values may be shown once.

hOATP5A1, sequence (Q9H2Y9 whole entry): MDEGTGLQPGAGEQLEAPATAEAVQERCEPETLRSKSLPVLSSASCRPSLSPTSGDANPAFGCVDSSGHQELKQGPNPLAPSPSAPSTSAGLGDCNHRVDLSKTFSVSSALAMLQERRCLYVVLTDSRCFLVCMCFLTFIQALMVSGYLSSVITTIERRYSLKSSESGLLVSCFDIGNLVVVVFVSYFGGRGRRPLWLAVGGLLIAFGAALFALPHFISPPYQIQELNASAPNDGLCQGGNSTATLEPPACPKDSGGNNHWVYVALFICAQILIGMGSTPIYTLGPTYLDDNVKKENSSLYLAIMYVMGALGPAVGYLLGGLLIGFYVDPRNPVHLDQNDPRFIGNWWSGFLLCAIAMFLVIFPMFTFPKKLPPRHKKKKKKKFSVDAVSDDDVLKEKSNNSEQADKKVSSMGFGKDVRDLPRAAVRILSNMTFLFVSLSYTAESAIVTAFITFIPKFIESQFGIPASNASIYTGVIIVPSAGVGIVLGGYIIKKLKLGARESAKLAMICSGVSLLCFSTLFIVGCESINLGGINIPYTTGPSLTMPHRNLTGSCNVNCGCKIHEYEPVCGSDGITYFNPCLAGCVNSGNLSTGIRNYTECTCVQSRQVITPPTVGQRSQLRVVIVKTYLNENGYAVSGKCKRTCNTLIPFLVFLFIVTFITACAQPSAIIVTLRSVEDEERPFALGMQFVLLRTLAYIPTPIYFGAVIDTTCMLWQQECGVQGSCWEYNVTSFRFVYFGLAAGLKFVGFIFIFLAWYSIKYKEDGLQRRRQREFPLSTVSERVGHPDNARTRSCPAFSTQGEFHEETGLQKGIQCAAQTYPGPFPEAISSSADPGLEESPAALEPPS
hOATP1C1, sequence (Q9NYB5 whole entry): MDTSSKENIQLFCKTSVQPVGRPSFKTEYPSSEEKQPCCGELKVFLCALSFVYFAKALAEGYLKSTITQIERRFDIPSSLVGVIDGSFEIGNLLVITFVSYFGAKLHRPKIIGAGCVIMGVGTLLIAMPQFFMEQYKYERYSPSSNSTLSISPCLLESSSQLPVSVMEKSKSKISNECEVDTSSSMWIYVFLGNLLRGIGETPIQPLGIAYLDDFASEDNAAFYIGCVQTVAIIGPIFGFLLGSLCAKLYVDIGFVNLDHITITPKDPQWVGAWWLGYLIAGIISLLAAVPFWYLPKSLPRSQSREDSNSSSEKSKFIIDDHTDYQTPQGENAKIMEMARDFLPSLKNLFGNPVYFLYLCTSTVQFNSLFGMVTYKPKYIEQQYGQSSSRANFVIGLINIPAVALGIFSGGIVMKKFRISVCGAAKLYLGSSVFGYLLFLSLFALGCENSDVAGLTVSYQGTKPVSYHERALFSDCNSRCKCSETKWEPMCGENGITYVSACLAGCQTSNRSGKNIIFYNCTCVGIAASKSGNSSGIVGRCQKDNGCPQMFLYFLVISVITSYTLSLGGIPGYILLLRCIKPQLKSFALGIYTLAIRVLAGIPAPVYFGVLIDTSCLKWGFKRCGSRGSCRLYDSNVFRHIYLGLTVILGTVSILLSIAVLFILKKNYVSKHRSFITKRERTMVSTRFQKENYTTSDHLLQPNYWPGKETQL

With `CC[C@]1(O)C[C@H]2CN(CCc3c([nH]c4ccccc34)[C@@](C(=O)OC)(c3cc4c(cc3OC)N(C=O)[C@H]3[C@@](O)(C(=O)OC)[C@H](OC(C)=O)[C@]5(CC)C=CCN6CC[C@]43[C@@H]65)C2)C1` [Vincristine, vincristine], the “Contribution of transporter to cellular uptake of vincristine” value on hOATP1C1 and at hOATP1A2 was “do not appreciably contribute to the cellular uptake of vincristine” each time. The BMS score in the series with mice (OATP1B2(-/-) mice, Day 1) was 9; in the series on mice (OATP1B2(-/-) mice, Day 2) it was 9; in the series with mice (OATP1B2(-/-) mice, Day 3), 9; in the series with mice (Wild-type mice, Day 1), 9 and 8; in the series on mice (Wild-type mice, Day 2) it was 9 and 8; in the series on mice (Wild-type mice, Day 3) it was 9. For the same compound, the “Basso Mouse Scale for Locomotion (BMS) score, average” value in the series with mice (wild-type and OATP1B2(-/-) mice, single i.p. dose 1 mg/kg, up to 3 days) is 9. The “Vincristine uptake (% of vector control)” value on hOATP5A1 is 109.00 % of vector control and 94.00 % of vector control and 90.00 % of vector control and 76.00 % of vector control and 77.00 % of vector control and 86.00 % of vector control and 80.00 % of vector control and 85.00 % of vector control.
